Laboratory results published in patent publication US20210347823A1, “METHODS OF PHYSICOCHEMICAL-GUIDED PEPTIDE DESIGN AND NOVEL PEPTIDES DERIVED THEREFROM” (Massachusetts Institute of Technology, priority 2018, published 2021).
Where no end group is shown, it is not given here.

Columns and labels:
human red blood cells = assay: Hemolytic activity assay; assay type: cell-based; conditions: for HC50: concentration needed for 50% hemolysis, human RBC in PBS, room temperature, 1 h, 0.1-100 μmol L^−1
Protocol: (§1) FIGS. 6A-6B. Hemolysis and resistance to protease-mediated degradation of engineered peptides. FIG. 6A. Schematic of experimental design and hemolytic assay results of Pol-CP—NH2 and derivatives, where hemolytic activity was evaluated by incubating the peptides (0.1-100 μmol L^−1) with human red blood cells in PBS at room temperature for 1 h. Experiments were performed in triplicate, (*p<0.05). FIG. 6B. Resistance to degradation of Pol-CP—NH2 and analogs exposed to fetal bovine serum (FBS) proteases for 6 h. Experiments were done in triplicate.
Hemolytic Activity Assays. Human erythrocytes were collected and washed three times by centrifugation at 300×g with PBS (pH 7.4). After the last centrifugation, the cells were resuspended in PBS pH 7.4. Aliquots at a concentration of 0.1 to 100 ? mol L^−1 of the peptides were added to the 96-well microplate, where in each well containing 50 ? L of a suspension of erythrocytes to 0.4% in a phosphate saline buffer (10 mmol L^−1 Na2HPO4, 1.8 mmol L^−1 […], pH 7.4, 137 mmol L^−1 NaCl and 2.7 mmol L^−1KCl). After that, the samples were incubated at room temperature for 1 h. Hemolysis was determined by reading absorbance at 405 nm of each well in a bed of plates. 1% SDS in PBS solution was used as positive control (Shalel S. et al., J. Colloid Interface Sci. 252, 66-76 (2002); Love L. J. Cell. Comp. Physiol. 36, 133-148 (1950)) and as negative control was used PBS only. MHC was defined as the maximal non-hemolytic concentration.

[1] = tested on: Gram-positive bacteria, Gram-negative bacteria and fungi (twelve different strains); assay: Liquid growth inhibition MIC against larger panel of microorganisms (MIC average); assay type: cell-based; conditions: average of MIC over twelve different strains
Text: FIGS. 5A-5D. Antimicrobial activity of second-generation library of synthetic peptides. FIG. 5A. In vitro activity of Pol-CP—NH2 and second generation of analogs against Gram-positive bacteria (Micrococcus luteus, Staphylococcus aureus, Staphylococcus epidermidis and Bacillus megaterium), Funghi (Candida albicans and Candida tropicalis) and Gram-negative bacteria (Escherichia coli, Enterobacter cloacae and Serratia marcescens). Experiments performed in triplicates. FIG. 5B. MIC (μmol L^−1) average vs fH in TFE/Water solution. FIG. 5C. Graph correlating MIC (μmol L^−1) averages vs H and (FIG. 5D) MIC (μmol L^−1) averages vs μH, where dots above the dashed line represent peptides with lower activity and dots below the dashed line show peptides with higher activity compared to the wild-type, in which one can observe ranges of optimal activity in determined intervals of H and μH values.
Microorganisms. The following strains were used: Micrococcus luteus A270, Staphylococcus aureus ATCC29213, Staphylococcus epidermidis ATCC12228, Bacillus megaterium ATCC10778 Escherichia coli SBS 363, Enterobacter cloacae ®-12, Serratia marcescens ATCC4112, Candida albicans MDM8, Candida tropicalis IOC4560 from Instituto Butanta, Sao Paulo, Brazil, and Escherichia coli BL21, Pseudomonas aeruginosa PA14, Pseudomonas aeruginosa PA01 and Staphylococcus aureus ATCC12600 from Synthetic Biology Group at MIT.
MIC assays. The MIC assays were performed using the broth microdilution method (Wiegand I. et al., Protoc. 3, 163-175 (2008); de la Fuente-Núñez C. et al., Antimicrob. Agents Chemother. 56, 2696-2704 (2012)) in sterile 96-well polypropylene microtiter plates. Peptides were added to the plate as solutions in BM2 minimal medium in concentrations ranging from 0 to 128 ? mol L^−1, and the bacteria were inoculated at a final concentration of 5×10^5 CFU mL^−1 per well. The plates were incubated at 37° C. for 24 h. The MIC was defined as the lowest concentration of compound at which no growth was observed. Additional liquid growth inhibition assays were done in Peptone Broth (PB, 0.5% NaCl, 1% Peptone at pH 7.4) and Potato Dextrose Broth (Invitrogen) were used for antibacterial and antifungal assays, respectively. Briefly, bacteria or fungi were incubated with serial dilutions of polybia-CP and analogs (50-0.09 μmol L^−1) in a 96-well microplate at 37° C. The microbial growth was assessed by measurements in a model 354 Multiskan Ascent microplate reader at A595nm, after 18 and 24 h (bacteria and fungi, respectively) incubation on a model 347CD FANEM incubator. MIC was defined as the minimal inhibitory concentration that prevents 100% of the bacterial growth. All assays were done in triplicate.

[2] = tested on: HEK293 human embryonic kidney cells; assay: Cytotoxicity assay (MTS); assay type: cell-based; conditions: for Cytotoxicity: HEK293, 48 h, MTS, peptides 0-64 μmol L^−1
Protocol: FIGS. 7A-7B. Cytotoxicity of engineered peptides. FIG. 7A. Schematic of the experimental design for cytotoxicity assays of Pol-CP—NH2 and derivatives against HEK293 human embryonic kidney cells. Briefly, cells were cultured in DMEM medium supplemented with FBS and antibiotics at 37° C. and 5% CO2. FIG. 7B. Results obtained by seeding HEK293 50,000 cells and incubating with peptides' solution (0-64 μmol L^−1) at 37° C. for 48 h. Cell viability was measured by MTS assay. All experiments were performed in triplicate.
Cytotoxicity assays. Human embryonic kidney 293 (HEK 293) cells were cultured in Dulbecco's Modified Eagle Medium (DMEM) supplemented with 10% Fetal Bovine Serum (FBS) and 1% penicillin-streptomycin at 37° C. in 5% CO2. The day before treatment, 50,000 HEK 293 cells were seeded into each well in 96-well plates. The peptides were added at concentrations ranging from 0 to 64 ? mol L^−1 and 48 h after exposure, cell viability was measured by means of MTS (dimethylthiazol-carboxymethoxyphenyl-sulfophenyl-tetrazolium) assay. Experiments were performed in triplicate for each condition.

[3] = Stability assay in fetal bovine serum; assay type: in vitro ADME; conditions: for resistance to protease-mediated degradation: fetal bovine serum, 6 h
Protocol: as §1
Stability Assays. The stability assay was performed with GIBCO fetal bovine serum diluted to 25% in water. 20 ? L of a 10 mg mL^−1 peptide solution was added to 1 mL 25% serum solution and kept at 37° C. The experiments were made in triplicate and 100 ? L aliquots were taken at 0, 0.5, 1, 2, 4 and 6 h. 10 ? L of TFA was added to the aliquots and the new solution was kept at 5° C. for 10 min, after that it was centrifuged at 14,000 rpm for 15 min, according to Powell et al. (Powell M. F. et al., Pharm. Res. 10, 1268-1273 (1993)). The reaction kinetics was followed by liquid chromatography and the percentage of remaining peptide was calculated by integrating the peptide peak area.

[4] = tested on: E. coli BL21, P. aeruginosa PA01 and PA14, and S. aureus ATCC12600; assay: In vitro antimicrobial activity against first set of bacteria (Ala-scan analogs); assay type: cell-based; conditions: Gram-positive and Gram-negative bacteria
Text: FIGS. 2A-2E. Design, physicochemical features and activity of Pol-CP—NH2 and Ala-scan analogs. FIG. 2A. Theoretical physicochemical properties of interest of the wild type and Ala-scan analogs, where H denotes hydrophobicity, μH is the hydrophobic moment, q represents the net charge and P/N is the ratio of polar/non-polar residues in the sequence. Top to bottom, left to right the sequences correspond to SEQ ID NOs: 1-13. FIG. 2B. Schematic of the in vitro biological activity experimental design. Briefly, 10^4 bacterial cells and serially diluted peptides (0-128 μmol L^−1) were added to a 96-well plate and incubated at 37° C. One day after the exposure, the solution in each well was measured in a microplate reader (600 nm) to check inhibition of bacteria compared to the untreated controls and presented as heat maps of antimicrobial activities (μmol L^−1) against four bacteria strains: E. coli strain BL21, S. aureus strain ATCC12600 and P. aeruginosa strains PA01, and PA14. Assays were performed in triplicates. FIG. 2C. Graph correlating MIC (μmol L^−1) averages vs H and (FIG. 2D) MIC (μmol L^−1) averages vs μH, where dots […] the dashed line show peptides with higher activity compared to the wild type, in which one can observe ranges of optimal activity in determined intervals of H and μH values. FIG. 2E. […]

| Compound | HC50 (human red blood cells) [µmol/L] | MIC Average [1] [µM] | Cytotoxicity [2] [µmol/L] | further results |
| --- | --- | --- | --- | --- |
| CC[C@H](C)[C@H](N)C(=O)N[C@@H](CC(C)C)C(=O)NCC(=O)N[C@H](C(=O)N[C@H](C(=O)N[C@@H](CC(C)C)C(=O)NCC(=O)N[C@@H](CC(C)C)C(=O)N[C@@H](CC(C)C)C(=O)N[C@@H](CCCCN)C(=O)N[C@@H](CO)C(N)=O)[C@@H](C)CC)[C@@H](C)O [Peptide 18] | >100.0 | >50.0 |  |  |
| GLGTILGLLKSL-NH2 [Peptide 20, GLGTILGLLKSL-NH2] | >100.0 | 16.7 | >64.0 | resistance to protease-mediated degradation [3]: degraded in a few minutes |
| ILATILGLLKSL-NH2 [Peptide 3, ILATILGLLKSL-NH2] |  |  | >64.0 |  |
| ILGKILGLLKSL-NH2 [Peptide 15, ILGKILGLLKSL-NH2] | >100.0 | 3.3 | 32.0 | cytotoxic concentration relative to MIC against P. aeruginosa ([2]; HEK293 cytotoxicity vs MIC): two- to four-fold higher; remaining at 6 h, 0.196 mg/mL ([3]; fetal bovine serum diluted to 25% in water, after six hours of exposure to fetal bovine serum, read-out: remaining peptide (% of initial concentration added)): ~50%; resistance to protease-mediated degradation [3]: increased resistance to protease-mediated degradation |
| ILGTALGLLKSL-NH2 [Peptide 5, ILGTALGLLKSL-NH2] |  |  | >64.0 |  |
| ILGTIAGLLKSL-NH2 [Peptide 6] |  |  |  | antimicrobial activity compared with wild type [4]: preserved the antimicrobial activity |
| ILGTILALLKSL-NH2 [Peptide 7, ILGTILALLKSL-NH2] |  |  | 32.0 |  |
| ILGTILGLFKSL-NH2 [Peptide 17, ILGTILGLFKSL-NH2] | 50.0 | 20.0 |  | hemolytic activity (concentration at which hemolytic) (human red blood cells; human red blood cells, range evaluated 0-100 μmol L^−1, listed as [Phe]^9-Pol-CP—NH2): ~50 µmol/L; hemolytic activity (human red blood cells; range of concentrations evaluated 0-100 μmol L^−1): hemolytic |
| ILGTILGLLKAL-NH2 [Peptide 11, ILGTILGLLKAL-NH2] |  |  | 64.0 |  |
| ILGTKLGLLKSL-NH2 [Peptide 14, ILGTKLGLLKSL-NH2] | >100.0 | >50.0 |  |  |
| ILGTLLGLKKSL-NH2 [Peptide 13, ILGTLLGLKKSL-NH2] | >100.0 | >50.0 |  |  |
